Patent US11976062B2, “Benzisoxazole compound” (OSAKA UNIVERSITY, priority 2018, dated 2024)

Legend:
[1] = system: α-SMA expression induced by TGFβ1 in dermal fibroblasts; experiment: Fibrosis inhibition evaluation 2: immunofluorescent staining of α-SMA in dermal fibroblasts; format: cell-based, mice; details: 10 μM, TGFβ1 10 ng/ml, 48 hours, FIG. 7
Experimental: In the same manner as in Test Example 5, dermal fibroblasts were isolated from mice, and sterilized cover glass (diameter: 12 mm) was placed in a 12-well plate. On the cover glass, 2.5×10^5 cells were seeded and grown. After 24 hours, the medium was replaced with a medium free of fetal bovine serum, and the cells were cultured for another 24 hours. Separately, cardiac fibroblasts were isolated from 1 to 2-day-old rats and treated in the same manner as for the dermal fibroblasts. Thereafter, 10 ng/ml TGFβ1 was added to the dermal fibroblasts, and 2 ng/ml TGFβ2 was added to the cardiac fibroblasts, followed by culturing the cells for 48 hours. At the same time as TGFβ was added, 10 μM of a test compound (compound 011), 10 μM of Pyr 2 (conventional inhibitor), or DMSO (solvent control) was also added. Separately, cultured cells to which TGFβ-free phosphate buffered saline (PBS) was added were also prepared. […] After blocking with 1% bovine serum albumin, α-SMA was detected using anti-α-SMA antibody (Sigma) as the primary antibody and anti-mouse IgG antibody (Molecular Probes) fused with Alexa 488 as the secondary antibody, and an image was acquired using a fluorescence microscope (Keyence) with a 20× objective lens. The average fluorescence brightness (fluorescence intensity/pixel) per cell area was calculated and analyzed using Image J software.

[2] = system: α-SMA expression induced by TGFβ1 in dermal fibroblasts; experiment: Fibrosis inhibition evaluation 1: western blotting of α-SMA in dermal fibroblasts; format: cell-based, mice; details: compound 011 0.1, 1, 10 μM (especially 10 μM); Pyr 2 10 μM; TGFβ1 10 ng/ml, 48 hours
Experimental: The expression of α-smooth muscle actin (α-SMA) in fibroblasts was evaluated by western blotting. Dermal fibroblasts were isolated from 1 to 3-day-old mice, and 2.5×10^5 cells were seeded in a 12-well plate. After 24 hours, the medium was replaced with a medium free of fetal bovine serum, and the cells were cultured for another 24 hours. Thereafter, 10 ng/ml of transforming growth factor β1 (TGFβ1) was added, and the cells were cultured for 48 hours. At the same time as TGFβ1 was added, a test compound (compound 011) of a predetermined concentration (0.1 μM, 1 μM, 10 μM) and 10 μM of Pyr 2 or DMSO (solvent control) were also added. […] The cultured cells were dissolved in a lysis buffer (140 mM NaCl, 20 mM Tris-HCl pH 7.8, 1% Triton-X100, 0.05% sodium deoxycholate, 0.1% SDS, 2 mM EDTA, proteinase inhibitor cocktail), and separated by SDS-PAGE, followed by detecting α-SMA using anti-α-SMA antibody (Sigma) as the primary antibody and anti-mouse IgG antibody (cell signaling) fused with horse radish peroxidase as the secondary antibody.

TRPC6 channel = biological target: T1, TRPC6 channel (Homo sapiens, UniProt Q9Y210); experiment: Electrophysiological evaluation (whole-cell patch) using HEK293 cells transiently expressing TRPC6 channel; format: cell-based; details: 30 μM for 30 seconds, carbachol 100 μM, holding potential −50 mV
T1 construct: expressed in transfected cells; host or cells: HEK293
T1 sequence (Q9Y210 1-931): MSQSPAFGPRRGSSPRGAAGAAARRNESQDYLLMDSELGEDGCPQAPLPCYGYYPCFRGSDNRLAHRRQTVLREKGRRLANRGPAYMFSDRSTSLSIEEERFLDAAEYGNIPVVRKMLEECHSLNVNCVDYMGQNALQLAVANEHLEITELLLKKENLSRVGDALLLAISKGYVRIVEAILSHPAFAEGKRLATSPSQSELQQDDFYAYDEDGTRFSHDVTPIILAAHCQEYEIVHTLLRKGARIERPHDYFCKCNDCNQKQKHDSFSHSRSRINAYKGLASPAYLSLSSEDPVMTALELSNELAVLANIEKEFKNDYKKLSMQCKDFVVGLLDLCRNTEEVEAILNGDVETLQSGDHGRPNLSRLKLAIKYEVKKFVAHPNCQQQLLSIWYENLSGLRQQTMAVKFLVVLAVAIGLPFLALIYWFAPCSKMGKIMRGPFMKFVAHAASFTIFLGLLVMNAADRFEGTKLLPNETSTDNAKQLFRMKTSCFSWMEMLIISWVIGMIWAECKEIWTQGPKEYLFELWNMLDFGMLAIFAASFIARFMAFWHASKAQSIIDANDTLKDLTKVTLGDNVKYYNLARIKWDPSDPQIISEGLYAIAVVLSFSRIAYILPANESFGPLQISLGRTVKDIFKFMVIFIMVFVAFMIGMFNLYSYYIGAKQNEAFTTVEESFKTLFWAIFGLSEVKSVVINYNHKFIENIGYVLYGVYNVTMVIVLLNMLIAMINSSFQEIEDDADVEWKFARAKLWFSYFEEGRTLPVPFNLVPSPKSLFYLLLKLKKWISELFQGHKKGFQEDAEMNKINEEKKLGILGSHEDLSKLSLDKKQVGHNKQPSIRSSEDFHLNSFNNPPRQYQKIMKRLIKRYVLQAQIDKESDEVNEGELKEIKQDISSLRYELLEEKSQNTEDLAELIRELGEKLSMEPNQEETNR
Experimental: Evaluation was performed using TRPC6-expressing cells cultured in the same manner as in Test Example 1. The transfected cells were placed in a chamber set in a microscope, and TRPC6 current was measured with a patch glass electrode (5 to 10 MΩ) in whole-cell mode. The extracellular solution and intracellular solution used in this evaluation are listed below.
Extracellular Solution: 140 mM NaCl, 5 mM KCl, 1 mM CaCl2, 1.2 mM MgCl2, 10 mM Glucose, 10 mM HEPES (pH 7.4)
Intracellular Solution: 120 mM CsOH, 120 mM Aspartate, 20 mM CsCl, 2 mM MgCl2, 1.5 mM CaCl2, 5 mM EGTA, 10 mM Glucose, 10 mM HEPES, 2 mM ATP-Na, 0.1 mM GTP (pH 7.4)
The holding potential was fixed at −50 mV. TRPC current was evoked by adding carbachol (100 μM) to the cells. Evaluation was performed on the change in current caused by adding 30 μM of a test compound (compound 011) to the cells for 30 seconds after 20 seconds from the addition of carbachol.

## O=C(O)c1cnc(N2CCN(c3noc4cccc(C(F)(F)F)c34)CC2)c(Cl)c1 [Compound 011, 5-chloro-6-(4-(4-(trifluoromethyl)benzo[d]isoxazol-3-yl)piperazin-1-yl) nicotinic acid]
[1]
  expression of α-SMA induced by TGFβ (immunofluorescent staining): almost completely suppressed the expression of α-SMA
[2]
  expression of α-SMA induced by TGFβ1 (western blotting): potently inhibited the expression of α-SMA induced by TGFβ1
TRPC6 channel
  change in TRPC6 current evoked by carbachol: significant decrease in the amount of current
